Measured values taken from ChEMBL document CHEMBL4828719, “H2dpa derivatives containing pentadentate ligands: An acyclic adjuvant potentiates meropenem activity in vitro and in vivo against metallo-β-lactamase-producing Enterobacterales” (Eur J Med Chem, 2021).
Values after ≈ are worked out from the molar mass of the structure shown. Active and inactive are the calls of the source. The calls are words filed in the database; no cut-off is given here.

How the values were obtained:
[1] = Non competitive inhibition of IMP-1 (unknown origin) assessed as inhibition of substrate hydrolysis by measuring decrease in Vmax using imipenem as substrate preincubated with enzyme for 5 mins followed by substrate addition by Lineweaver-Burk plot analysis
Klebsiella pneumoniae [2] = experiment: Antibiotic adjuvant activity against meropenem-treated NDM-producing carbapenem resistant Klebsiella pneumoniae infected in BALB/c mouse sepsis model assessed as reduction in neutrophil infiltration in red pulp of spleen at 10 mg/kg, ip in the presence of meropenem observed for 2 days by HE staining based assay; type: functional, organism-based; settings: time 2.0 day
Escherichia coli [3] = experiment: Antibiotic adjuvant activity against meropenem-treated VIM-1 producing Escherichia coli DH5 alpha assessed as bacterial growth at 8 ug/ml incubated for 16 to 20 hrs in the presence of meropenem by CLSI based microdilution method; type: functional; settings: dose 8 µg/ml; time 16-20 hrs
Klebsiella pneumoniae [4] = experiment: Antibacterial activity against MBL producing Klebsiella pneumoniae isolates assessed as inhibition of bacterial growth at 64 ug/ml incubated for 16 to 20 hrs by CLSI based microdilution method; type: functional, organism-based; settings: dose 64.0 µg/ml, time 16-20 hrs
[5] = Non competitive inhibition of NDM-1 (unknown origin) assessed as inhibition of substrate hydrolysis by measuring decrease in Vmax using meropenem as substrate preincubated with enzyme for 5 mins followed by substrate addition by Lineweaver-Burk plot analysis
Klebsiella pneumoniae [6] = experiment: Antibacterial activity against NDM-producing carbapenem resistant Klebsiella pneumoniae infected in BALB/c mouse sepsis model assessed as animal survival at 10 mg/kg, ip measured after 48 hrs; type: functional, organism-based
Escherichia coli [7] = experiment: Antibiotic adjuvant activity against meropenem-treated IMP-4 producing Escherichia coli DH5 alpha assessed as bacterial growth at 8 ug/ml incubated for 16 to 20 hrs in the presence of meropenem and 100 uM zinc sulfate by CLSI based microdilution method; type: functional; settings: dose 8 µg/ml; time 16-20 hrs
Klebsiella oxytoca = experiment: Antibacterial activity against MBL producing Klebsiella oxytoca isolates assessed as inhibition of bacterial growth at 64 ug/ml incubated for 16 to 20 hrs by CLSI based microdilution method; type: functional, organism-based; settings: dose 64.0 µg/ml, time 16-20 hrs
[8] = Acute toxicity in BALB/c mouse assessed as change in hemoglobin level at 50 mg/kg, ip administered as single dose measured after 24 hrs; type: organism-based; settings: in vivo
Klebsiella pneumoniae [9] = experiment: Antibiotic adjuvant activity against meropenem-treated NDM-producing carbapenem resistant Klebsiella pneumoniae infected in BALB/c mouse sepsis model assessed as reduction of bacterial load in kidney at 10 mg/kg, ip in the presence of meropenem observed for 2 days; type: functional, organism-based; settings: time 2.0 day
[10] = Zinc chelation-dependent inhibition of VIM-2 (unknown origin) expressed in Escherichia coli BL21 (DE3) using nitrocefin as substrate preincubated with enzyme for 5 to 10 mins followed by substrate addition
[11] = Zinc chelation-dependent inhibition of IMP-1 (unknown origin) expressed in Escherichia coli DH5 alpha using imipenem as substrate preincubated with enzyme for 5 mins followed by substrate addition in the presence of zinc sulfate
[12] = Toxicity in sheep RBC assessed as induction of hemolysis at 1024 microg/ml measured after 1 hr relative to control; type: tissue-based, Ovis aries, Erythrocyte; settings: sheep red blood cells, at 1024 µg/mL, read-out: Activity
[13] = Zinc chelation-dependent inhibition of VIM-2 (unknown origin) expressed in Escherichia coli DH5 alpha using nitrocefin as substrate preincubated with enzyme for 5 mins followed by substrate addition in presence of zinc sulfate
[14] = Acute toxicity in BALB/c mouse assessed as change in mean corpuscular volume at 50 mg/kg, ip administered as single dose measured after 24 hrs; type: organism-based; settings: in vivo
[15] = Acute toxicity in BALB/c mouse assessed as change in creatinine level in serum at 50 mg/kg, ip administered as single dose measured after 24 hrs; type: organism-based; settings: in vivo
Pseudomonas aeruginosa = experiment: Antibacterial activity against MBL producing Pseudomonas aeruginosa isolates assessed as inhibition of bacterial growth at 64 ug/ml incubated for 16 to 20 hrs by CLSI based microdilution method; type: functional, organism-based; settings: dose 64.0 µg/ml, time 16-20 hrs
Klebsiella pneumoniae [16] = experiment: Antibacterial activity against NDM-producing carbapenem resistant Klebsiella pneumoniae infected in BALB/c mouse sepsis model assessed as swollen and degenerated liver cells with localized focal necrosis at 10 mg/kg, ip observed for 2 days by HE staining based assay; type: functional, organism-based; settings: time 2.0 day
Escherichia coli [17] = experiment: Antibacterial activity against VIM-1 producing Escherichia coli DH5alpha assessed as decrease in bacterial growth incubated for 16 to 20 hrs by CLSI based microdilution method; type: functional; settings: DH5[alpha], time 16-20 hrs
[18] = Zinc chelation-dependent inhibition of NDM-1 (unknown origin) expressed in Escherichia coli DH5 alpha using meropenem as substrate preincubated with enzyme for 5 mins followed by substrate addition in the presence of zinc sulfate
[19] = Acute toxicity in BALB/cmouse assessed as change in hematocrit level at 50 mg/kg, ip administered as single dose measured after 24 hrs; type: organism-based, BALB/c; settings: mouse, in vivo
[20] = Zinc chelation-dependent inhibition of NDM-1 (unknown origin) expressed in Escherichia coli BL21 (DE3) using meropenem as substrate preincubated with enzyme for 5 to 10 mins followed by substrate addition
[21] = Acute toxicity in BALB/c mouse assessed as pathological changes in kidney at 50 mg/kg, ip administered as single dose measured after 24 hrs by hematoxylin and eosin staining based assay; type: organism-based; settings: in vivo
Escherichia coli [22] = experiment: Antibacterial activity against IMP-4 producing Escherichia coli DH5 alpha assessed as bacterial growth at 8 ug/ml incubated for 16 to 20 hrs by CLSI based microdilution method; type: functional; settings: dose 8 µg/ml; time 16-20 hrs
Escherichia coli [23] = experiment: Antibiotic adjuvant activity against VIM-1 producing Escherichia coli DH5alpha assessed as potentiation of meropenem-induced antibacterial activity incubated for 16 to 20 hrs by agar disc diffusion assay; type: functional, organism-based; settings: DH5[alpha], time 16-20 hrs
Escherichia coli [24] = experiment: Antibiotic adjuvant activity against NDM-1 producing Escherichia coli DH5alpha assessed as potentiation of meropenem-induced antibacterial activity by measuring fold reduction in meropenem MIC at 16 ug/ml incubated for 16 to 20 hrs by checkerboard assay; type: functional, DH5[alpha]; settings: dose 16 µg/ml; time 16-20 hrs
Escherichia coli [25] = experiment: Antibacterial activity against NDM-1 producing Escherichia coli DH5alpha assessed as decrease in bacterial growth incubated for 16 to 20 hrs by CLSI based microdilution method; type: functional; settings: DH5[alpha], time 16-20 hrs
Klebsiella pneumoniae [26] = experiment: Antibacterial activity against NDM-producing carbapenem resistant Klebsiella pneumoniae infected in BALB/c mouse sepsis model assessed as dilated and congested central vein with neutrophil cell infiltration within the red pulp of the spleen at 10 mg/kg, ip observed for 2 days by HE staining based assay; type: functional, organism-based; settings: time 2.0 day
[27] = Acute toxicity in BALB/c mouse assessed as pathological changes in spleen at 50 mg/kg, ip administered as single dose measured after 24 hrs by hematoxylin and eosin staining based assay; type: organism-based; settings: in vivo
Klebsiella pneumoniae [28] = experiment: Antibiotic adjuvant activity against meropenem-treated NDM-producing carbapenem resistant Klebsiella pneumoniae infected in BALB/c mouse sepsis model assessed as reduction of bacterial load in spleen at 10 mg/kg, ip in the presence of meropenem observed for 2 days; type: functional, organism-based; settings: time 2.0 day
Escherichia coli [29] = experiment: Antibacterial activity against NDM-1 producing Escherichia coli DH5 alpha assessed as bacterial growth at 8 ug/ml incubated for 16 to 20 hrs by CLSI based microdilution method; type: functional; settings: dose 8 µg/ml; time 16-20 hrs
Escherichia coli [30] = experiment: Synergistic antibacterial activity against VIM-1 producing Escherichia coli DH5alpha assessed as fractional inhibitory concentration index incubated for 16 to 20 hrs in presence of meropenem by checkerboard assay; type: functional, DH5[alpha]; settings: time 16-20 hrs

Row | Structure (SMILES) | Ki [1] [µM] | Activity (Klebsiella pneumoniae [2]) | Activity (Escherichia coli [3]) [%] | Activity (Klebsiella pneumoniae [4]) | Ki [5] [µM] | Activity (Klebsiella pneumoniae [6]) | Activity (Escherichia coli [7]) [%] | Activity (Klebsiella oxytoca) | Activity [8] | Activity (Klebsiella pneumoniae [9]) | IC50 [10] [µM] | Activity [11] | hemolysis at 1 h, 1024 microg/ml [12] [%] | Activity [13] | Activity [14] | Activity [15] | Activity (Pseudomonas aeruginosa) | Activity (Klebsiella pneumoniae [16]) | MIC (Escherichia coli [17]) [µg/mL] | Activity [18] | other results
1 | C[C@@H](C(=O)O)N(Cc1cccc(C(=O)O)n1)Cc1cccc(C(=O)O)n1 | 1.54 | Active | <10 | inactive | 1.7 | inactive | 100 | inactive | Non-Toxic | Active | 1.54 | inactive | < 7 | inactive | Non-Toxic | Non-Toxic | inactive | inactive | 128 (≈ 356 µM) | inactive | Activity [19]: Non-Toxic; IC50 [20]: 1.69 µM; Activity [21]: Non-Toxic; Activity (Escherichia coli [22]): 95%; Activity (Escherichia coli [23]): Active; fold change (FC) (Escherichia coli [24]): >1000; MIC (Escherichia coli [25]): 128 µg/mL (≈ 356 µM); Activity (Klebsiella pneumoniae [26]): inactive; Activity [27]: Non-Toxic; Activity (Klebsiella pneumoniae [28]): Active; Activity (Escherichia coli [29]): 95%; fractional inhibitory concentration index (FICI) (Escherichia coli [30]): 0.07
2 | C[C@H](C(=O)O)N(Cc1cccc(C(=O)O)n1)Cc1cccc(C(=O)O)n1 | 1.57 | Active | <10 | inactive | 1.59 | inactive | 100 | inactive | Non-Toxic | Active | 1.56 | inactive | < 7 | inactive | Non-Toxic | Non-Toxic | inactive | inactive | 128 (≈ 356 µM) | inactive | Activity [19]: Non-Toxic; IC50 [20]: 1.6 µM; Activity [21]: Non-Toxic; Activity (Escherichia coli [22]): 95%; Activity (Escherichia coli [23]): Active; fold change (FC) (Escherichia coli [24]): >1000; MIC (Escherichia coli [25]): 128 µg/mL (≈ 356 µM); Activity (Klebsiella pneumoniae [26]): inactive; Activity [27]: Non-Toxic; Activity (Klebsiella pneumoniae [28]): Active; Activity (Escherichia coli [29]): 95%; fractional inhibitory concentration index (FICI) (Escherichia coli [30]): 0.07
